In patent US8337899B2, “Solid pharmaceutical dispersions with enhanced bioavailability” (Bend Research, Inc., priority 1997, dated 2012):
One block for each molecule: values may come before it.

Experiments:
[1] = centrifuge in vitro dissolution test in MFD solution; type: physicochemical; settings: centrifuge method; for MSSC (maximum supersaturated concentration): MFD solution pH 6.5, 37° C., supernatant; for C90: concentration at 90 minutes; for C1200: concentration at 1200 minutes
Procedure: This example discloses an in vitro dissolution test termed the “centrifuge” method. This method was used to test the dissolution of material made by essentially the same method as that described in Example 1 except that the concentration of Compound 1 was decreased by a factor of 2 to 66.5 mg such that the ratio of compound to polymer was 1:1. (see Example 7, Table I).
In a 37° C. controlled temperature box, 1.8 mg of solid product from Example 1 was accurately weighed into an empty microcentrifuge tube (polypropylene, Sorenson Bioscience Inc.). The theoretical maximum concentration of compound in solution (e.g., if all compound dissolved) was 383 μgA/ml [1.8 mg dispersion (1000 μg/1 mg) (0.5 μg compound/μg dispersion) (0.764 compound assay)/1.8 ml=[…]]. This value is termed the theoretical maximum supersaturated concentration and is abbreviated Theoretical MSSC. 1.8 mL of a 37C phosphate buffered saline solution (8.2 mM NaCl, 1.1 mM Na2HPO4, 4.7 mM KH2PO4, pH 6.5, 290 mOsm/kg) containing 14.7 mM sodium taurocholic acid (Fluka) and 2.8 mM 1-palmitoyl-2-oleoyl-sn-glycero-3-phosphocholine (Avanti Polar Lipids) was added to the tube. The centrifuge tube was closed and a timer was started. The tube was then mixed continuously at the highest speed on a vortex mixer (Fisher Vortex Genie 2) for 60 seconds. The tube was transferred to a centrifuge (Marathon, Model Micro A) allowed to stand undisturbed for six minutes, then centrifuged at 13,000 G for 60 seconds. A 25 uL sample was removed from the solids-free supernatant in the centrifuge tube via pipette (Gilson Pipetman P-100) ten minutes after the timer was started. Solids in the centrifuge tube were resuspended by mixing the sample continuously on the vortex mixer for 30 seconds. The centrifuge tube was returned to the centrifuge and allowed to stand undisturbed until the next sample was taken. Each sample was centrifuged, sampled and resuspended as described previously. Each sample was diluted 1:1 with a solution containing 60/40 1.7 wt % ammonium ascorbate/acetonitrile, and the concentration of compound was determined by HPLC (Hewlett Packard 1090 HPLC, Phenomenex Ultracarb ODS 20 analytical column, absorbance measured at 215 nm with a diode array spectrophotometer). […] […] The maximum compound concentration observed, 125 μgA/ml, is termed the maximum supersaturated concentration of compound and is abbreviated MSSC.

[2] = syringe/filter in vitro dissolution test in MFD solution; type: physicochemical; settings: for C90: concentration at 90 minutes; for MSSC (maximum supersaturated concentration): syringe/filter method, MFD solution pH 6.5, 37° C., 0.45 μm filtrate
Procedure: This example discloses an in vitro dissolution test termed the “syringe/filter” method. In this method the concentration of test compound in solution is determined as a function of time. Test solution is held in a syringe from which samples are expelled through a filter at pre-determined time points. In between expelling samples from the syringe, the syringe is rotated (50 rpm) on a wheel held in an oven at 37° C.
A 20 GA hypodermic needle was attached to the syringe, and 10 mL of a model-fasted duodenal (MFD) solution at 37° C. was drawn into the syringe.
The MFD solution was prepared using the following procedure. […] This mixture was then mixed thoroughly by vortex mixer (Fisher Vortex Genie), and the solvent removed rapidly by roto-evaporator (Rotavapor RE121, Büchi), leaving a dry white surface dispersion coating the flask. The surface dispersion was then reconstituted with 200 mL of the 37° C. phosphate buffered saline.
The needle was then replaced with a 13 mm, 0.45 μm polyvinylidine diflouride syringe filter (Scientific Resources, Titan), and the syringe was vigorously shaken for 30 sec. After 30 sec, 6 drops of the solution was expelled and a subsequent 13 drop sample was delivered to a test tube. After expelling the sample, the syringe plunger was drawn back to pull an air bubble into the syringe to aid in subsequent mixing and the syringe placed back on a rotating wheel in a 37° C. oven. […] The remaining solution in the syringe was mixed by rotating on a wheel at 50 rpm in a 37° C. temperature-controlled box.

[3] = solid amorphous dispersions in HPMCAS, pH 4.0; cited from earlier work
[4] = aqueous solubility; type: physicochemical; settings: pH 6.5

Compound: CON(C)C(=O)C(O)[C@H](Cc1ccccc1)NC(=O)c1cc2cc(Cl)ccc2[nH]1 (stereo in doubt) [Compound 1, [R—(R*,S*)]-5-chloro-N-[2-hydroxy-3-(methoxymethylamino)-3-oxo-1-(phenylmethyl)propyl]-1-H-indole-2-carboxamide]
- equilibrium solubility ([2]; in the dissolution medium (MFD)): 9 μgA/ml

Compound: CCC(CC)Oc1cc(C)nc(Oc2c(C)cc(C)cc2C)c1C [Example C5]
- MSSC (maximum supersaturated concentration) [1]: 18 μgA/mL
- C90 [1]: 18 μgA/mL
- C1200 [1]: 13 μgA/mL

Compound: CC[C@H]1OC(=O)C[C@@H](O)[C@H](C)[C@@H](O[C@@H]2O[C@H](C)[C@@H](O[C@H]3C[C@@](C)(O)[C@@H](OC(=O)Cc4ccc(OC)cc4)[C@H](C)O3)[C@H](N(C)C)[C@H]2O)[C@@H](CC=O)C[C@@H](C)C(=O)/C=C/C(C)=C/[C@@H]1CO[C@@H]1O[C@H](C)[C@@H](O)[C@@H](OC)[C@H]1OC [MAT, 4″-0-(4-methoxyphenyl)acetyltylosin]
- supersaturated concentration relative to crystalline MAT [3]: 9 fold

Compound: Cc1ccc2c(c1)N(CC(=O)NC(C)(C)C)C(=O)C(NC(=O)Nc1cccc(Cl)c1)CC2c1ccccc1 (stereo not drawn) [N-tert-butyl-2-{3-[3-(3-chloro-phenyl)-unreido]-8-methyl-2-oxo-5-phenyl-2,3,4,5-tetrahydrobenxo[b]azepin-1-yl}-acetamide]
- aqueous solubility [4]: less than 3.0 μg/ml

Now from value to molecule:

- MSSC (maximum supersaturated concentration) [1]: 194 μgA/mL
- C90 [1]: 158 μgA/mL
- C1200 [1]: 194 μgA/mL
Compound: O=C(N[C@@H](Cc1ccccc1)[C@@H](O)C(=O)N1C[C@@H](O)[C@@H](O)C1)c1cc2cc(Cl)ccc2[nH]1 (relative stereo) [Example C17, 1H-Indole-2-caboxamide, 5-chloro-N-[3-(3,4-dihydroxy-1-pyrrolidinyl)-2-hydroxy-3-oxo-1-(phenylmethnyl)propyl]-, [R—[R*,S*-(cis)]]-]

- C90 ([2]; syringe/filter, MFD, 37° C.): 10 μgA/mL
- C180 ([2]; concentration at 180 minutes, syringe/filter, MFD, 37° C.): 8.5 μgA/mL
- C1200 ([2]; concentration at 1200 minutes, syringe/filter, MFD, 37° C.): 9 μgA/mL
- MSSC (maximum supersaturated concentration) [2]: 10 μgA/mL
Compound: CON(C)C(=O)C(O)[C@H](Cc1ccccc1)NC(=O)c1cc2cc(Cl)ccc2[nH]1 (stereo in doubt) [Example C1, [R—(R*,S*)]-5-chloro-N-[2-hydroxy-3-(methoxymethylamino)-3-oxo-1-(phenylmethyl)propyl]-1-H-indole-2-carboxamide]

- C60 ([2]; concentration at 60 minutes, syringe/filter, MFD, 37° C.): 17 μgA/mL
- C90 ([2]; syringe/filter, MFD, 37° C.): 15 μgA/mL
- MSSC (maximum supersaturated concentration) [2]: 18 μgA/mL
Compound: COC1=CC(=O)CC(C)C12Oc1c(Cl)c(OC)cc(OC)c1C2=O (stereo not drawn) [Example C11, 7-chloro-4,6-dimethoxy-courmaran-3-one-2-spiro-1′-(2′-methoxy-6′-methylcyclohex-2′en-4′-one)]

- C3 ([1]; concentration at 3 minutes): 14 μgA/mL
- C10 ([1]; concentration at 10 minutes): 20 μgA/mL
- C20 ([1]; concentration at 20 minutes): 28 μgA/mL
- C40 ([1]; concentration at 40 minutes): 34 μgA/mL
- C90 [1]: 50 μgA/mL
Compound: O=C1NC(=O)C(c2ccccc2)(c2ccccc2)N1 [Example C14, 5,5-diphenylhydantoin]

- MSSC (maximum supersaturated concentration) [1]: 22 μgA/mL
- C90 [1]: 22 μgA/mL
- C1200 [1]: 22 μgA/mL
Compound: CCC(CC)Nc1cc(C)nc(Oc2c(C)cc(C)cc2C)c1C [Example C16, [3,6-dimethyl-2-(2,4,6-trimethyl-phenoxy)-pyridin-4-yl]-(1-ethyl-propyl)-amine]
